Source: the supplement of paper PMC4862054

test system: CAL-85-1; experiment: normalised viability (% of control), CellTiter-Blue; higher = more viable cells (about 100 = DMSO control); settings: 0.3 nM; incubation time: 72 h
How it was run: (§1)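 Normalised viability is given for a single listed concentration of the series. In 384-well plates, breast cancer cell lines were incubated 72 h with compound, then read with CellTiter-Blue (2 h, 37 °C) at 560/590 nm. Per-plate scaling set vehicle to 100 and a positive kill control to 0, with Z'-factor quality control.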

Compared with `CC(C)C[C@H](NC(=O)[C@H](Cc1ccccc1)NC(=O)c1cnccn1)B(O)O` [Bortezomib], `Cn1cnc2c(F)c(Nc3ccc(Br)cc3F)c(C(=O)NOCCO)cc21` [MEK-162] is lower in normalised viability: 104% for the first, 94.6% for the second.

same assay, conditions: 3 nM; incubation time: 72 h

First: O=c1[nH]c(=O)n([C@H]2C[C@H](O)[C@@H](CO)O2)cc1F [Floxuridine]
Second: Cn1cnc2c(F)c(Nc3ccc(Br)cc3F)c(C(=O)NOCCO)cc21 [MEK-162]
The normalised viability of the first is lower: 90.4% for the first, 95.1% for the second.

First: CC(C)C[C@H](NC(=O)[C@H](Cc1ccccc1)NC(=O)c1cnccn1)B(O)O [Bortezomib]
Second: O=C(c1ccc(OCCN2CCCCC2)cc1)c1c(-c2ccc(O)cc2)sc2cc(O)ccc12 [Raloxifene]
The normalised viability of the first is lower: 92.1% for the first, 100% for the second.

`COc1c(C)cnc(Cn2cnc3c(Cl)nc(N)nc32)c1C` [BIIB021] was tested, and the normalised viability was 81%.

same assay, conditions: 10 nM; incubation time: 72 h

First: CC(C)C[C@H](NC(=O)[C@H](Cc1ccccc1)NC(=O)c1cnccn1)B(O)O [Bortezomib]
Second: Cn1cnc2c(F)c(Nc3ccc(Br)cc3F)c(C(=O)NOCCO)cc21 [MEK-162]
The normalised viability of the first is lower: 36.5% for the first, 99.1% for the second.

same assay, conditions: 30 nM; incubation time: 72 h

First: O=c1[nH]c(=O)n([C@H]2C[C@H](O)[C@@H](CO)O2)cc1F [Floxuridine]
Second: O=C(c1ccc(OCCN2CCCCC2)cc1)c1c(-c2ccc(O)cc2)sc2cc(O)ccc12 [Raloxifene]
The normalised viability of the first is lower: 68.8% for the first, 94.5% for the second.

`COc1c(C)cnc(Cn2cnc3c(Cl)nc(N)nc32)c1C` [BIIB021] was tested, and the normalised viability was 81.5%.

same assay, conditions: 100 nM; incubation time: 72 h

Compared with `O=c1[nH]c(=O)n([C@H]2C[C@H](O)[C@@H](CO)O2)cc1F` [Floxuridine], `O=C(c1ccc(OCCN2CCCCC2)cc1)c1c(-c2ccc(O)cc2)sc2cc(O)ccc12` [Raloxifene] is higher in normalised viability: 62.3% for the first, 98% for the second.

Compound `COc1c(C)cnc(Cn2cnc3c(Cl)nc(N)nc32)c1C` [BIIB021] has a normalised viability of 86.1%.

test system: CAL-120; experiment: as above; settings: 1 nM; incubation time: 72 h
How it was run: as §1

Going from `CC(C)C[C@H](NC(=O)[C@H](Cc1ccccc1)NC(=O)c1cnccn1)B(O)O` [Bortezomib] to `Cn1cnc2c(F)c(Nc3ccc(Br)cc3F)c(C(=O)NOCCO)cc21` [MEK-162], the normalised viability rises from 95.8% to 98.1%.

same assay, conditions: 10 nM; incubation time: 72 h

First: O=c1[nH]c(=O)n([C@H]2C[C@H](O)[C@@H](CO)O2)cc1F [Floxuridine]
Second: O=C(c1ccc(OCCN2CCCCC2)cc1)c1c(-c2ccc(O)cc2)sc2cc(O)ccc12 [Raloxifene]
The normalised viability of the first is lower: 94.4% for the first, 99.6% for the second.

Compound `COc1c(C)cnc(Cn2cnc3c(Cl)nc(N)nc32)c1C` [BIIB021] has a normalised viability of 84.1%.

same assay, conditions: 100 nM; incubation time: 72 h

Going from `CC(C)C[C@H](NC(=O)[C@H](Cc1ccccc1)NC(=O)c1cnccn1)B(O)O` [Bortezomib] to `Cn1cnc2c(F)c(Nc3ccc(Br)cc3F)c(C(=O)NOCCO)cc21` [MEK-162], the normalised viability rises from 4.31% to 93.8%.

same assay, conditions: 1000 nM; incubation time: 72 h

Compared with `O=c1[nH]c(=O)n([C@H]2C[C@H](O)[C@@H](CO)O2)cc1F` [Floxuridine], `Cn1cnc2c(F)c(Nc3ccc(Br)cc3F)c(C(=O)NOCCO)cc21` [MEK-162] is higher in normalised viability: 16.8% for the first, 93.4% for the second.

Going from `CC(C)C[C@H](NC(=O)[C@H](Cc1ccccc1)NC(=O)c1cnccn1)B(O)O` [Bortezomib] to `O=C(c1ccc(OCCN2CCCCC2)cc1)c1c(-c2ccc(O)cc2)sc2cc(O)ccc12` [Raloxifene], the normalised viability rises from 3.21% to 98.2%.

`COc1c(C)cnc(Cn2cnc3c(Cl)nc(N)nc32)c1C` [BIIB021] gave a normalised viability of 18.4%.

same assay, conditions: 10000 nM; incubation time: 72 h

Going from `O=c1[nH]c(=O)n([C@H]2C[C@H](O)[C@@H](CO)O2)cc1F` [Floxuridine] to `O=C(c1ccc(OCCN2CCCCC2)cc1)c1c(-c2ccc(O)cc2)sc2cc(O)ccc12` [Raloxifene], the normalised viability rises from 21.1% to 91.8%.

For `COc1c(C)cnc(Cn2cnc3c(Cl)nc(N)nc32)c1C` [BIIB021], the normalised viability was 15.2%.

test system: CAL-51; experiment: as above; settings: 0.3 nM; incubation time: 72 h
How it was run: as §1

Compared with `CC(C)C[C@H](NC(=O)[C@H](Cc1ccccc1)NC(=O)c1cnccn1)B(O)O` [Bortezomib], `Cn1cnc2c(F)c(Nc3ccc(Br)cc3F)c(C(=O)NOCCO)cc21` [MEK-162] is higher in normalised viability: 101% for the first, 112% for the second.

same assay, conditions: 3 nM; incubation time: 72 h

Going from `O=c1[nH]c(=O)n([C@H]2C[C@H](O)[C@@H](CO)O2)cc1F` [Floxuridine] to `Cn1cnc2c(F)c(Nc3ccc(Br)cc3F)c(C(=O)NOCCO)cc21` [MEK-162], the normalised viability falls from 108% to 104%.

First: CC(C)C[C@H](NC(=O)[C@H](Cc1ccccc1)NC(=O)c1cnccn1)B(O)O [Bortezomib]
Second: O=C(c1ccc(OCCN2CCCCC2)cc1)c1c(-c2ccc(O)cc2)sc2cc(O)ccc12 [Raloxifene]
The normalised viability of the first is lower: 97.9% for the first, 102% for the second.

In the case of `COc1c(C)cnc(Cn2cnc3c(Cl)nc(N)nc32)c1C` [BIIB021], the normalised viability is reported as 103%.

same assay, conditions: 10 nM; incubation time: 72 h

Compared with `CC(C)C[C@H](NC(=O)[C@H](Cc1ccccc1)NC(=O)c1cnccn1)B(O)O` [Bortezomib], `Cn1cnc2c(F)c(Nc3ccc(Br)cc3F)c(C(=O)NOCCO)cc21` [MEK-162] is higher in normalised viability: 97.7% for the first, 100% for the second.

same assay, conditions: 30 nM; incubation time: 72 h

First: O=c1[nH]c(=O)n([C@H]2C[C@H](O)[C@@H](CO)O2)cc1F [Floxuridine]
Second: O=C(c1ccc(OCCN2CCCCC2)cc1)c1c(-c2ccc(O)cc2)sc2cc(O)ccc12 [Raloxifene]
The normalised viability of the first is lower: 64.4% for the first, 99.7% for the second.

Work on `COc1c(C)cnc(Cn2cnc3c(Cl)nc(N)nc32)c1C` [BIIB021] yielded a normalised viability of 102%.

same assay, conditions: 100 nM; incubation time: 72 h

Going from `O=c1[nH]c(=O)n([C@H]2C[C@H](O)[C@@H](CO)O2)cc1F` [Floxuridine] to `O=C(c1ccc(OCCN2CCCCC2)cc1)c1c(-c2ccc(O)cc2)sc2cc(O)ccc12` [Raloxifene], the normalised viability rises from 46.6% to 93.7%.

In the case of `COc1c(C)cnc(Cn2cnc3c(Cl)nc(N)nc32)c1C` [BIIB021], the normalised viability is reported as 101%.

test system: MDA-MB-453; experiment: as above; settings: 0.3 nM; incubation time: 72 h
How it was run: as §1

Compared with `CC(C)C[C@H](NC(=O)[C@H](Cc1ccccc1)NC(=O)c1cnccn1)B(O)O` [Bortezomib], `Cn1cnc2c(F)c(Nc3ccc(Br)cc3F)c(C(=O)NOCCO)cc21` [MEK-162] is higher in normalised viability: 106% for the first, 115% for the second.

same assay, conditions: 3 nM; incubation time: 72 h

Going from `O=c1[nH]c(=O)n([C@H]2C[C@H](O)[C@@H](CO)O2)cc1F` [Floxuridine] to `Cn1cnc2c(F)c(Nc3ccc(Br)cc3F)c(C(=O)NOCCO)cc21` [MEK-162], the normalised viability falls from 109% to 94%.

Compared with `CC(C)C[C@H](NC(=O)[C@H](Cc1ccccc1)NC(=O)c1cnccn1)B(O)O` [Bortezomib], `O=C(c1ccc(OCCN2CCCCC2)cc1)c1c(-c2ccc(O)cc2)sc2cc(O)ccc12` [Raloxifene] is lower in normalised viability: 112% for the first, 106% for the second.

For `COc1c(C)cnc(Cn2cnc3c(Cl)nc(N)nc32)c1C` [BIIB021], the normalised viability was 96.5%.

same assay, conditions: 10 nM; incubation time: 72 h

First: CC(C)C[C@H](NC(=O)[C@H](Cc1ccccc1)NC(=O)c1cnccn1)B(O)O [Bortezomib]
Second: Cn1cnc2c(F)c(Nc3ccc(Br)cc3F)c(C(=O)NOCCO)cc21 [MEK-162]
The normalised viability of the first is lower: 20.9% for the first, 110% for the second.

same assay, conditions: 30 nM; incubation time: 72 h

Going from `O=c1[nH]c(=O)n([C@H]2C[C@H](O)[C@@H](CO)O2)cc1F` [Floxuridine] to `O=C(c1ccc(OCCN2CCCCC2)cc1)c1c(-c2ccc(O)cc2)sc2cc(O)ccc12` [Raloxifene], the normalised viability rises from 79% to 97.5%.

With `COc1c(C)cnc(Cn2cnc3c(Cl)nc(N)nc32)c1C` [BIIB021] the normalised viability was 79.5%.

same assay, conditions: 100 nM; incubation time: 72 h

Going from `O=c1[nH]c(=O)n([C@H]2C[C@H](O)[C@@H](CO)O2)cc1F` [Floxuridine] to `O=C(c1ccc(OCCN2CCCCC2)cc1)c1c(-c2ccc(O)cc2)sc2cc(O)ccc12` [Raloxifene], the normalised viability rises from 85.3% to 92.4%.

In the case of `COc1c(C)cnc(Cn2cnc3c(Cl)nc(N)nc32)c1C` [BIIB021], the normalised viability is reported as 38.4%.

test system: BT-474; experiment: as above; settings: 1 nM; incubation time: 72 h
How it was run: as §1

Going from `CC(C)C[C@H](NC(=O)[C@H](Cc1ccccc1)NC(=O)c1cnccn1)B(O)O` [Bortezomib] to `Cn1cnc2c(F)c(Nc3ccc(Br)cc3F)c(C(=O)NOCCO)cc21` [MEK-162], the normalised viability rises from 101% to 119%.

same assay, conditions: 10 nM; incubation time: 72 h

Going from `O=c1[nH]c(=O)n([C@H]2C[C@H](O)[C@@H](CO)O2)cc1F` [Floxuridine] to `O=C(c1ccc(OCCN2CCCCC2)cc1)c1c(-c2ccc(O)cc2)sc2cc(O)ccc12` [Raloxifene], the normalised viability falls from 108% to 100%.

Work on `COc1c(C)cnc(Cn2cnc3c(Cl)nc(N)nc32)c1C` [BIIB021] yielded a normalised viability of 104%.

same assay, conditions: 100 nM; incubation time: 72 h

First: CC(C)C[C@H](NC(=O)[C@H](Cc1ccccc1)NC(=O)c1cnccn1)B(O)O [Bortezomib]
Second: Cn1cnc2c(F)c(Nc3ccc(Br)cc3F)c(C(=O)NOCCO)cc21 [MEK-162]
The normalised viability of the first is lower: 36.6% for the first, 115% for the second.

same assay, conditions: 1000 nM; incubation time: 72 h

`O=c1[nH]c(=O)n([C@H]2C[C@H](O)[C@@H](CO)O2)cc1F` [Floxuridine] and `O=C(c1ccc(OCCN2CCCCC2)cc1)c1c(-c2ccc(O)cc2)sc2cc(O)ccc12` [Raloxifene] are the same in normalised viability: 103% for the first, 103% for the second.

`CC(C)C[C@H](NC(=O)[C@H](Cc1ccccc1)NC(=O)c1cnccn1)B(O)O` [Bortezomib] was tested, and the normalised viability was 22.4%.
